Assay results as given in patent US20160129044A1, “USE OF MESOTHELIAL CELLS IN TISSUE BIOENGINEERING AND ARTIFICIAL TISSUES” (FUNDACION PÚBLICA ANDALUZA PROGRESO Y SALUD, priority 2013, published 2016).

Tested on: adipose tissue mesothelial cells (ATMCs)
Experiment: Epithelial-to-mesenchymal transition (EMT) of cultured adipose tissue mesothelial cells: morphology, α-SMA/F-actin immunofluorescence, Western blot
Format: cell-based, mouse
Conditions: hydrocortisone 1 μg/ml; ATMCs cultured 3 days; basal media or 20 ng/ml EGF
Procedure: A total number of 3.5×10^5 ATMCs was seeded in each well of a 6 wells culture dishes (140685, Nunclon™ Δ Surface) into 1.5 ml of a culture media that we termed MRPM (Mesothelial Retaining Phenotype Media). […] Dev Dyn 236: 2973-2979) which are components of the fetal bovine serum (FBS). […] Concentration in viable ATMCs was assessed with a Neubaeur haemocytometer by using the trypan blue exclusion test and was adjusted to a final concentration of 1.6×10^6 cells/ml. […] The mesothelial phenotype of ATMCs cultured for 48 hours in MRPM into hydrophilic p-Dish as well as mesothelialized HALC cultures was analyzed with immunofluorescence. […] Fluorescence images were captured with an inverted fluorescence microscope Olympus IX71 as described above. Quantification of α-SMA immunofluorescence expression was performed with the use of the Meta Imaging Software MetaMorph Offline version 7.5.1.0 (MDS Analytical technologies, USA). For each immunofluorescence image, were calculated the average values of specific Hoechst 33342 and Alexa 488 nm fluorescence emitted by the cells. Specific fluorescence was obtained after eliminating the average values of background fluorescence emitted by 3 areas lacking cells. Hoechst 33342 and Alexa 488 nm fluorescence were further divided between each other to obtain a relative index of marker expression (arbitrary units). […]

`C[C@]12CCC(=O)C=C1CC[C@@H]1[C@@H]2[C@@H](O)C[C@@]2(C)[C@H]1CC[C@]2(O)C(=O)CO` [Hydrocortisone, hydrocortisone] was tested, and the “Effect on Serum- and EGF-induced EMT of ATMCs (α-SMA expression, immunofluorescence and Western blot)” value was “inhibits Serum- and EGF-induced EMT”.
